# Assay results from ChEMBL document CHEMBL1201862, “PubChem BioAssay data set” (2004).
# Active and inactive are the calls of the source.
# Columns and labels:
# [1] = biological target: Transitional endoplasmic reticulum ATPase (Homo sapiens, UniProt P55072); assay: p97 ATPase inhibitors, dose response, biochemical (AID 1534)
# [2] = biological target: Peroxisome proliferator-activated receptor gamma/Nuclear receptor coactivator 2 (Homo sapiens, UniProt P37231); type: functional;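 further: agonist potency for raising coactivator recruitment to the receptor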
# [3] = biological target: Peroxisome proliferator-activated receptor gamma/Nuclear receptor coactivator 3 (Homo sapiens, UniProt P37231); type: functional;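 further: agonist potency for raising coactivator recruitment to the receptor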
# [4] = biological target: Peroxisome proliferator-activated receptor gamma/Nuclear receptor coactivator 1 (Homo sapiens, UniProt P37231); type: functional;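 further: agonist potency as compounds enhance coactivator SRC-1 recruitment to PPARgamma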
# [5] = biological target: Transitional endoplasmic reticulum ATPase (Homo sapiens, UniProt P55072, C522A); assay: C522A mutant p97 ATPase inhibitors, dose response, counter-screen for p97 inhibitor project, biochemical, luminescence (AID 1544)
# Estrogen receptor = biological target: T1, Estrogen receptor (Homo sapiens, UniProt P03372); assay: ERα coactivator recruitment enhancers – biochemical, TR-FRET, ERα LBD, dose response (AID 737)
# T1 sequence (P03372 whole entry): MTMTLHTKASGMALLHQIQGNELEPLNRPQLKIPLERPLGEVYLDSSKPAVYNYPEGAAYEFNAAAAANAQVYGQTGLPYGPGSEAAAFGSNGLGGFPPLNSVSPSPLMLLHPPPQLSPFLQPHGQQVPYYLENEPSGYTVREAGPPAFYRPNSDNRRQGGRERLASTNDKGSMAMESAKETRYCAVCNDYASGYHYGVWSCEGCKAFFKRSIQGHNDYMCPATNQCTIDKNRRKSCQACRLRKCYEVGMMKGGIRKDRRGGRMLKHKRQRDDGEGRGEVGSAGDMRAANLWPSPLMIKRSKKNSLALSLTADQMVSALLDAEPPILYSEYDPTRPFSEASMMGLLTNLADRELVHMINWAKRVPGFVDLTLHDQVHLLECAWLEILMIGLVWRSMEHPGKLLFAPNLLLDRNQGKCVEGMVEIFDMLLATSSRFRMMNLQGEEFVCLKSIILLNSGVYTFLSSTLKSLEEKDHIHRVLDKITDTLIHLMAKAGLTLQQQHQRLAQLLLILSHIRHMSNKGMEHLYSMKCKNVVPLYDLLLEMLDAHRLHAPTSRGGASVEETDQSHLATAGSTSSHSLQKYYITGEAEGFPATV
# [6] = biological target: Potassium voltage-gated channel subfamily KQT member 2 (Rattus norvegicus, UniProt O88943); assay: potentiation of rat KCNQ2 current – cell-based, retigabine-insensitive compounds, dose response (AID 2654); type: functional
# [7] = biological target: Neuropeptide Y receptor type 1 (Homo sapiens, UniProt P25929); type: functional;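 further: HEK293 cells with a CNG channel challenged with NPY then isoproterenol; potency as antagonist that reverses NPY suppression of cAMP signal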
# Neuropeptide Y receptor type 1, sequence (P25929 whole entry): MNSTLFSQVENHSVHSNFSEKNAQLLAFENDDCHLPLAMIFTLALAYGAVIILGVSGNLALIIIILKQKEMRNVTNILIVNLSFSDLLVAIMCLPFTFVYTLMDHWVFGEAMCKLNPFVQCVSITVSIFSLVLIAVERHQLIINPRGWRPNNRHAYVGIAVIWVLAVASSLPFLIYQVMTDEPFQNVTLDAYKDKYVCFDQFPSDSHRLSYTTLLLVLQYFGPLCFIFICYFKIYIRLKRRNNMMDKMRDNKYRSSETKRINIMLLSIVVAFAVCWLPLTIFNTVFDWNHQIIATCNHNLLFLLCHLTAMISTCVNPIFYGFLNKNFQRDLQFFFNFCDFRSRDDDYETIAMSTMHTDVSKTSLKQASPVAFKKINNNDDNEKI
# [8] = biological target: Neuropeptide Y receptor type 2 (Homo sapiens, UniProt P49146); type: functional, cell-based;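 further: HEK293 cells expressing the receptor and a CNG channel; stimulus was NPY near EC95 followed by isoproterenol to raise cAMP; antagonist potency measured as restoring cAMP signal that NPY suppresses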
# [9] = biological target: Induced myeloid leukemia cell differentiation protein Mcl-1 (Homo sapiens, UniProt Q07820); assay: blockers of MCL1 binding to BIM peptide – biochemical, fluorescence polarization, BIM-BH3 peptide, 1536-well, dose response (AID 2217)
# [10] = biological target: T2, Carboxy-terminal domain RNA polymerase II polypeptide A small phosphatase 1 (Homo sapiens, UniProt Q9GZU7); assay: CTDSP1 inhibitors, concentration-response, biochemical, absorbance readout, ultra-high-throughput screen actives (AID 540297); type: functional
# T2 sequence (Q9GZU7 whole entry): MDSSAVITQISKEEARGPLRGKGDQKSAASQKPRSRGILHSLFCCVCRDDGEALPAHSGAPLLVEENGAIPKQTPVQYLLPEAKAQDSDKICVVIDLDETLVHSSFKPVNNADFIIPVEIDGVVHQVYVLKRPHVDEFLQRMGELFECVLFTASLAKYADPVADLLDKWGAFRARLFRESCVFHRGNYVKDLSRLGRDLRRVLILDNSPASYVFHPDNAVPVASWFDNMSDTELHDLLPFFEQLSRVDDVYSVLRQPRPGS
# Bcl-2-like protein 1 = Bcl-2-like protein 1 (Homo sapiens, UniProt Q07817); assay: blockers of BCLXL peptide binding – biochemical, fluorescence polarization, 1536-well, selectivity assay for MCL1 inhibitor project, dose response (AID 2218)
# Caspase-6 = biological target: T3, Caspase-6 (Homo sapiens, UniProt P55212); assay: inhibition of CASP6 peptide cleavage – biochemical, VEID-R110 fluorescence, cherry-pick, dose response (AID 720632)
# T3 sequence (P55212 whole entry): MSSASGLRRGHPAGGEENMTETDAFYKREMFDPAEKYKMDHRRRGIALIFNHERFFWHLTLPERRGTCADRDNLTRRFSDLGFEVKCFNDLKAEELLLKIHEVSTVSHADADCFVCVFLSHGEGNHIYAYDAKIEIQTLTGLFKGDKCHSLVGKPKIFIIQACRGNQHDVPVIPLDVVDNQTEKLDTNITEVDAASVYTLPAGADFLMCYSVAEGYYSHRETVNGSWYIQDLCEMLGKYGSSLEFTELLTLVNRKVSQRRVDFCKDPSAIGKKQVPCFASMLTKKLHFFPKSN
# [11] = biological target: T4, E3 ubiquitin-protein ligase XIAP (Homo sapiens, UniProt P98170); assay: small molecules displacing peptide from XIAP – biochemical, IAP family, fluorescence polarization (AID 1018); type: functional
# T4 sequence (P98170 whole entry): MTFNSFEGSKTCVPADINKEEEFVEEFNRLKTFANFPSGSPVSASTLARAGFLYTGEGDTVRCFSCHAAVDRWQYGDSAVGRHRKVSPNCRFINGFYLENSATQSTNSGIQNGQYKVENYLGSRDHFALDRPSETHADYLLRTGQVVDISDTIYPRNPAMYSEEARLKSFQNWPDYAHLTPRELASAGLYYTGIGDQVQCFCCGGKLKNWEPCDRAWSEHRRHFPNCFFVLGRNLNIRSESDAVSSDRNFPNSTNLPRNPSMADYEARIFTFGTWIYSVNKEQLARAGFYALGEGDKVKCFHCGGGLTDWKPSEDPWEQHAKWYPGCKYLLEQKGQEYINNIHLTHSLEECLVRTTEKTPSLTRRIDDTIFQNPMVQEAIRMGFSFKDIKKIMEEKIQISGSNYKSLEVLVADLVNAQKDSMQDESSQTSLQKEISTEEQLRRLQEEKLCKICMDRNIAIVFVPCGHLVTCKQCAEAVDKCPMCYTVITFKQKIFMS
# [12] = biological target: T4, E3 ubiquitin-protein ligase XIAP; assay: Counter Screen using XIAP-Bir3 for Chemical Antagonists of Bir1/2 domains of IAP-family anti-apoptotic proteins. [Related pubchem assays (depositor defined):AID1018, AID1449, AID1514, AID1638, AID1749, AID1750, AID488957, AID488963]
# [13] = biological target: T5, Mannose-6-phosphate isomerase (Homo sapiens, UniProt P34949); assay: MPI enzyme activity inhibition – biochemical, fluorescence intensity, coupled assay, primary screen (AID 1209)
# T5 sequence (P34949 whole entry): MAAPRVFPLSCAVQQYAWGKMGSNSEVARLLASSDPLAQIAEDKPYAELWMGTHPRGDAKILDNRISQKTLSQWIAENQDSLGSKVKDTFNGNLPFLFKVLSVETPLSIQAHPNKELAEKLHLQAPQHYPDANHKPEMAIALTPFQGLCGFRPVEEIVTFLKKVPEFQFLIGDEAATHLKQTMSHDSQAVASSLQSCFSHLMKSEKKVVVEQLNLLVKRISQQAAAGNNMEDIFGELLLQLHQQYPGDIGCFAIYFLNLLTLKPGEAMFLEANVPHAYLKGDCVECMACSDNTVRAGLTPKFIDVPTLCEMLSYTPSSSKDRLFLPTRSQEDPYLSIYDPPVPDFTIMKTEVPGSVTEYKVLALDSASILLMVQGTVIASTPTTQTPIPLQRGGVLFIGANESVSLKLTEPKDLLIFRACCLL
# [14] = biological target: T6, Tyrosine-protein phosphatase non-receptor type 7 (Homo sapiens, UniProt P35236); assay: Dose Response confirmation of compounds that inhibit HePTP. [Related pubchem assays (depositor defined):AID1059, AID1661, AID2085]; type: functional
# T6 sequence (P35236 whole entry): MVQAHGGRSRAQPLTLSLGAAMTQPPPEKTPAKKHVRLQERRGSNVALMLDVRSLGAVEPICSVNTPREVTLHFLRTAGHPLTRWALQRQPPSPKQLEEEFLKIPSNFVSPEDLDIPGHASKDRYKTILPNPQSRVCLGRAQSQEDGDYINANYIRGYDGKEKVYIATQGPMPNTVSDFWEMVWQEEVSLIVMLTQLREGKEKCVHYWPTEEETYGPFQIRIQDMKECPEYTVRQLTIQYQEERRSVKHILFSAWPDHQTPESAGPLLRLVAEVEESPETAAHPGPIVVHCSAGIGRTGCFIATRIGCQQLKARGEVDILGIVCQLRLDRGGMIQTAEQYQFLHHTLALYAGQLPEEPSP
# [15] = biological target: T7, Low molecular weight phosphotyrosine protein phosphatase (Homo sapiens, UniProt P24666); type: functional; details: read-out: IC50_Mean;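 further: Dose-response confirmation assay measuring inhibition of LMPTP enzyme activity by fluorescence intensity read-out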
# T7 sequence (P24666 whole entry): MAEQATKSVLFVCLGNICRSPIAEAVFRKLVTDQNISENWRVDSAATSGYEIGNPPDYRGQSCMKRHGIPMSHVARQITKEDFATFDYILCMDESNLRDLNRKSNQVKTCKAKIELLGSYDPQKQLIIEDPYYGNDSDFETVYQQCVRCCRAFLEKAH
# [16] = biological target: Dual specificity protein phosphatase 3 (Homo sapiens, UniProt P51452); assay: Dose Response Confirmation of compounds that inhibit VHR1 in Fluorescent Assay. [Related pubchem assays (depositor defined):AID1661, AID1878]; type: functional
# [17] = antiviral protection against BTV-induced cell death – arbovirus, BSR cells, confirmation (AID 1250); type: functional;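 further: protection from viral cytopathic effect measured as cell viability by ATP luminescence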
# [18] = biological target: Eukaryotic translation initiation factor 4E (Mus musculus, UniProt P63073); assay: blockers of eIF4G binding by eIF4E – biochemical, TR-FRET, dose response (AID 855); type: functional;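 further: potency for disrupting eIF4E binding to eIF4GI seen as loss of FRET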
# [19] = biological target: Glucose-6-phosphate 1-dehydrogenase (Homo sapiens, UniProt P11413); assay: inhibition of Homo sapiens G6PD, dose series – biochemical, fluorescence, selectivity assay for P. falciparum G6PD inhibitor project, dose response (AID 504792); type: functional
# [20] = biological target: T8, Voltage-gated N-type calcium channel alpha-1B subunit/Amyloid beta A4 precursor protein-binding family A member 1 (Homo sapiens, UniProt Q00975+Q02410); assay: disruptors of Mint-PDZ/N-type channel peptide interaction – biochemical, HTRF, SAR follow-up (AID 2489); type: functional
# T8 sequence (Q00975 whole entry): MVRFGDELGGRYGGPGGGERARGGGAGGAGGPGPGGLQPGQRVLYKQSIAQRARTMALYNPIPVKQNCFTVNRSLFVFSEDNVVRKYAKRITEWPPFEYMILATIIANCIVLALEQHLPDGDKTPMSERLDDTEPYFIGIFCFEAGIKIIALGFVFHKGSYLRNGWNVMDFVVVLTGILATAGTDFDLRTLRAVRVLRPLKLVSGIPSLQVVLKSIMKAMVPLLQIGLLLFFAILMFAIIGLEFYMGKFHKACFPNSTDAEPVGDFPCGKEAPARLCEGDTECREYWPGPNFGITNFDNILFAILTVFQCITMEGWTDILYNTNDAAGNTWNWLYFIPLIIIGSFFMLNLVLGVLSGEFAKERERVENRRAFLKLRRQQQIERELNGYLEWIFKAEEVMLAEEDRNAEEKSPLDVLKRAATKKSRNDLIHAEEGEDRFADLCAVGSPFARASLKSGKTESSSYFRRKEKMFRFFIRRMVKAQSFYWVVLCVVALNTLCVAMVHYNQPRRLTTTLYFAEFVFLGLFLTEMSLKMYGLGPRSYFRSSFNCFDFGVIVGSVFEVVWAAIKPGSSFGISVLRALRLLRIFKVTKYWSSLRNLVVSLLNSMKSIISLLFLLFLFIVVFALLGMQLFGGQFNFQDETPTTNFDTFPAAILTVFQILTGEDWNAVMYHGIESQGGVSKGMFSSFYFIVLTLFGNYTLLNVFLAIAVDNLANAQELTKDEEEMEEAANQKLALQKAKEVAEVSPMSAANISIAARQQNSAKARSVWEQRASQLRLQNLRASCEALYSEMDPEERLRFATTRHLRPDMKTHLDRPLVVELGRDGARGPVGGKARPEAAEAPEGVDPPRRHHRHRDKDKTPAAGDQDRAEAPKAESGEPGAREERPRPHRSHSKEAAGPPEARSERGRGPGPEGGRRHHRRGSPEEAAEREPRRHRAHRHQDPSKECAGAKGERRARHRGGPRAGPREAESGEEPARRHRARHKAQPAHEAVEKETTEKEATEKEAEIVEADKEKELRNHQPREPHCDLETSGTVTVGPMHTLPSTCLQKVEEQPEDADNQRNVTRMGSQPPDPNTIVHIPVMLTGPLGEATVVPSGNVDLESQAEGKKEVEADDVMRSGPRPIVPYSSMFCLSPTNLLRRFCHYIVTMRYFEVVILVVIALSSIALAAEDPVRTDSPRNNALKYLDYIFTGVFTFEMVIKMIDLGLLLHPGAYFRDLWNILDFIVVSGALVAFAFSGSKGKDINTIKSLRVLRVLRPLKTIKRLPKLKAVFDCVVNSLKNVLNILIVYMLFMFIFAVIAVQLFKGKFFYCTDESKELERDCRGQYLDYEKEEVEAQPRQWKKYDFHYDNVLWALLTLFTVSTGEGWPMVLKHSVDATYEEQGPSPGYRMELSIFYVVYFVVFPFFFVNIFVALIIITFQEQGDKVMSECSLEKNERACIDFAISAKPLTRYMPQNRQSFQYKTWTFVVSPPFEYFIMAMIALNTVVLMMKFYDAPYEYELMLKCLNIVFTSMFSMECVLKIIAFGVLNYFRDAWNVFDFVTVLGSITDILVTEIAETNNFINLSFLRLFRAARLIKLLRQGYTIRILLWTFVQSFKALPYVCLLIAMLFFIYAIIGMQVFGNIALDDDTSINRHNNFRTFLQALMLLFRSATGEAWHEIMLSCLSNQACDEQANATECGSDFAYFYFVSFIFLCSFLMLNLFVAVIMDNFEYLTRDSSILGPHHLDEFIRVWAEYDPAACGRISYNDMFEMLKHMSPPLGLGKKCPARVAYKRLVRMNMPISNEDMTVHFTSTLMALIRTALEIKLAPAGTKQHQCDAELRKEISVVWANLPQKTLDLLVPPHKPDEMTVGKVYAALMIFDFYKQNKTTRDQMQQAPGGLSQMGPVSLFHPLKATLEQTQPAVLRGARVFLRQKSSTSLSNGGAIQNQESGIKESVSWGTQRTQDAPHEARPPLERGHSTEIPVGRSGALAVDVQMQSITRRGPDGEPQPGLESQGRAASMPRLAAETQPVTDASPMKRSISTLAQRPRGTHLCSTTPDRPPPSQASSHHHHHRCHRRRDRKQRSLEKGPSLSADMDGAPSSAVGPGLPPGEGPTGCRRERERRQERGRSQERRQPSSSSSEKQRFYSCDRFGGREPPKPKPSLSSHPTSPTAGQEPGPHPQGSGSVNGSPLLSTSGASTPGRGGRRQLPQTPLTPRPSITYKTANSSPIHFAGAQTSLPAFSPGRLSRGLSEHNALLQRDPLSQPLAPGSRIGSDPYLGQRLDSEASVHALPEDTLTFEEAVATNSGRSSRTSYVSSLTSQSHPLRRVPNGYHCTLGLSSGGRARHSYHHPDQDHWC
# T8 sequence (Q02410 whole entry): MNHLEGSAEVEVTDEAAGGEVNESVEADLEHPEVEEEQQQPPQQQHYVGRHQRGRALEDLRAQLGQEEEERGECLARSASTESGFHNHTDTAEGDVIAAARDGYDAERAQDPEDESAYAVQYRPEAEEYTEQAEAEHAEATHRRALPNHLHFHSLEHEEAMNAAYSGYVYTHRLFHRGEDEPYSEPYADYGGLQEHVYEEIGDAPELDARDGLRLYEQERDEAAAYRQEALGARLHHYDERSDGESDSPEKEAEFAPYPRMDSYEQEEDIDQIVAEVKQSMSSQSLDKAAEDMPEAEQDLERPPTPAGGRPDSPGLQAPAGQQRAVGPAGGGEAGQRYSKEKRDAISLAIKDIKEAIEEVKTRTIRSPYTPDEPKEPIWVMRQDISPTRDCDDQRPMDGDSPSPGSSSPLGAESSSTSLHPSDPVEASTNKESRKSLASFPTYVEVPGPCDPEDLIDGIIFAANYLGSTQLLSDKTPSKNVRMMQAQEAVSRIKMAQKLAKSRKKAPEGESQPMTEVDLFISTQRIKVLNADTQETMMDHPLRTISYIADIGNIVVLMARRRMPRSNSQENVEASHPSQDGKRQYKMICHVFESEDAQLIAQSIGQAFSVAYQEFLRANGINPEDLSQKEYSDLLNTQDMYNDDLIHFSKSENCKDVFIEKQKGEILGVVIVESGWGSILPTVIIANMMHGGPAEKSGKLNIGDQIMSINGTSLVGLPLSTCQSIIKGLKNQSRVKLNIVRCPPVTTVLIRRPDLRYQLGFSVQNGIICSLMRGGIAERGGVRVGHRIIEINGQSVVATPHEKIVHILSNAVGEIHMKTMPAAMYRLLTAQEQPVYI
# Large T antigen = Large T antigen (Simian virus 40, UniProt P03070); type: functional, Betapolyomavirus macacae;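 further: Confirmatory-stage PubChem screen for compounds that inhibit SV40 T antigen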
# [21] = biological target: Phosphoethanolamine/phosphocholine phosphatase (Homo sapiens, UniProt Q8TCT1); assay: SAR assay for compounds that inhibit PHOSPHO1. [Related pubchem assays (depositor defined):AID1545, AID1565, AID1574]
# [22] = biological target: T8, Voltage-gated N-type calcium channel alpha-1B subunit/Amyloid beta A4 precursor protein-binding family A member 1; assay: disruptors of Mint-PDZ/N-type channel peptide interaction – biochemical, HTRF, set 2, SAR follow-up (AID 434980); type: functional
# [23] = biological target: T8, Voltage-gated N-type calcium channel alpha-1B subunit/Amyloid beta A4 precursor protein-binding family A member 1; type: protein assay
# [24] = biological target: T5, Mannose-6-phosphate isomerase; assay: MPI inhibition at elevated mannose 6-phosphate – biochemical, fluorescence intensity, high mannose 6-phosphate, primary screen (AID 1220)
# [25] = biological target: T8, Voltage-gated N-type calcium channel alpha-1B subunit/Amyloid beta A4 precursor protein-binding family A member 1; type: protein assay; remark: listed apart in the source
# Staphylococcus aureus = assay: Inhibitors of Bacterial Quorum Sensing Structure Activity Relationship (SAR) Analysis: Dose Response Assay. [Related pubchem assays: 700, 527 ]; type: functional, organism-based
# [26] = biological target: Melanin-concentrating hormone receptor 1 (Homo sapiens, UniProt Q99705); assay: Late-stage fluorescence-based counterscreen for antagonists of the G-protein coupled receptor 7 (GPR7): cell-based dose response assay to identify antagonists of the melanin-concentrating hormone receptor 1 (MCHR1). [Related pubchem assays (depositor defined):AID1861, AID1880, AID1952, AID2148, AID2251, AID2257, AID485339]; type: functional;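 further: stimulated with 30 nM MCH peptide agonist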
# SUMO-activating enzyme [27] = biological target: T9, SUMO-activating enzyme (Homo sapiens, UniProt Q9UBT2); assay: blockers of SAE1/SAE2–UBC9 SUMO transfer – biochemical, HTRF, uHTS, primary screen (AID 2006); type: protein-complex assay
# T9 sequence (Q9UBE0 whole entry): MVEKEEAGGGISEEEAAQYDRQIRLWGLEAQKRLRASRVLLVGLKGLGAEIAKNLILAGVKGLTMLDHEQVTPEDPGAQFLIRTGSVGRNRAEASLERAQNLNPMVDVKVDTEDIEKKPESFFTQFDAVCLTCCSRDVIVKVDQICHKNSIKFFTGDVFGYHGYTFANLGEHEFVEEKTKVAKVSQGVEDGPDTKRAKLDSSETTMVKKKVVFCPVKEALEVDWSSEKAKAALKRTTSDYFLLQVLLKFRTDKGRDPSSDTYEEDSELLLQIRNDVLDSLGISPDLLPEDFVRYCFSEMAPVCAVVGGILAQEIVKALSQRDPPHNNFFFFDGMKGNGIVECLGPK
# T9 sequence (Q9UBT2 whole entry): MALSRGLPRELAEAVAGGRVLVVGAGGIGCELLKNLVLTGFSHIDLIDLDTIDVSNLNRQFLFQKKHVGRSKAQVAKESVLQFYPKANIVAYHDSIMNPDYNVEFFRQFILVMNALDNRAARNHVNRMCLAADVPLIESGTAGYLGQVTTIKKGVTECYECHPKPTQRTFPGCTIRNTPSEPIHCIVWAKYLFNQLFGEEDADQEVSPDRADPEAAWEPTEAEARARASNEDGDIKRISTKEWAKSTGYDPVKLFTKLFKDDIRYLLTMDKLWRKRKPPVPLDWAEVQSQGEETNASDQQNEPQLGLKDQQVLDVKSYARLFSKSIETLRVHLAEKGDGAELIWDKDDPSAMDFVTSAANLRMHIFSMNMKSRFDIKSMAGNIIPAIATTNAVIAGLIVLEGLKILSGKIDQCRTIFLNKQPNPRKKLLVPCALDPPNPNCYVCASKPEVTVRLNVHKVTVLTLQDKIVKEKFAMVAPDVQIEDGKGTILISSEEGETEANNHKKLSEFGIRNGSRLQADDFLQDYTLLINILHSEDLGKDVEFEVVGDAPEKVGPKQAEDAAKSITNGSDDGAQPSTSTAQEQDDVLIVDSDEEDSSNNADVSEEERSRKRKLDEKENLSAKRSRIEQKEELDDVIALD
# [28] = biological target: Protein-tyrosine kinase 2-beta (Homo sapiens, UniProt Q14289);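 further: potency of inhibitors of PYK2 kinase phosphorylation of poly-GT substrate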
# SUMO-activating enzyme [29] = biological target: T9, SUMO-activating enzyme; assay: blockers of UBC9-mediated SUMO conjugation – biochemical, AlphaScreen, SUMOylation inhibitor project, confirmation (AID 2018); type: functional
structure (smiles),measurement,setting,value
N#Cc1c(NC(=O)c2ccccc2Cl)n(Cc2ccccc2)c2nc3ccccc3nc12,IC50,[1],> 50 µM (not active)
same,EC50,[2],> 26.5 µM (not active)
same,EC50,[3],9.38 µM (active)
same,EC50,[4],> 79.4 µM (not active)
same,IC50,[5],> 50 µM (not active)
COc1ccc(-c2nnc(SCC(=O)c3cc(C)n(Cc4cccs4)c3C)o2)cc1,EC50,Estrogen receptor,7.51 µM (active)
COc1ccc(NC(=O)Nc2cccnc2)cc1,EC50,[6],203 µM (active)
O=C(COc1ccccc1CNCc1ccccc1)Nc1ccccc1,IC50,[7],5.16 µM (active)
same,IC50,[8],9.67 µM (active)
COc1cccc(C(=O)OCC(=O)Nc2sc3c(c2C(N)=O)CCC3)c1O,IC50,[9],50.2 µM (not active)
same,IC50,[10],3.73 µM (active)
same,IC50,Bcl-2-like protein 1,> 109 µM (not active)
same,AC50,Caspase-6,17.7 µM (active)
COc1ccc(CC(=O)Oc2cc(C)nc(O)c2[N+](=O)[O-])cc1,IC50,[11],> 100 µM (not active)
same,IC50,[12],> 100 µM (inactive)
CC(C)c1ccc(N2C(=O)CC(Sc3nc[nH]n3)C2=O)cc1 (stereo not given),IC50,[13],> 50 µM (not active)
O=C1c2ccccc2C(Nc2cccnc2)N1Cc1ccc2c(c1)OCO2 (stereo not given),IC50,cells,21.6 µM (active)
O=C(Nc1ccncc1)c1cc(-c2ccccn2)nc2ccc(Br)cc12,IC50,[14],1.52 µM (active)
same,IC50,[15],26.3 µM (inactive)
same,IC50,[16],9.44 µM (active)
COc1ccc2oc3cc(C)[n+]([O-])c(-c4ccc(C)cc4)c3c2c1,IC50,[17],23 µM (active)
CNc1nc(-c2ccccc2)[n+](-c2ccc(C)cc2)s1,IC50,[18],1.49 µM (active)
same,IC50,[19],10.5 µM (active)
same,IC50,[20],< 110 nM (active)
same,IC50,Large T antigen,39 µM (active)
same,IC50,[21],4.47 µM (inactive)
same,IC50,[22],278 nM (active)
same,IC50,[23],2.48 µM (active)
same,IC50,[24],6.89 µM (active)
same,IC50,[25],1.4 µM (active)
O=C(Nc1ccc2c(c1)OCO2)C(c1ccccc1)N1CCC(Cc2ccccc2)CC1 (stereo not given),IC50,Staphylococcus aureus,802 nM (active)
COc1ccc(Oc2c(Cl)cnn(-c3ccc(C(C)C)cc3)c2=O)cc1,IC50,[26],3.1 µM (active)
O=C(Cn1c2ccccc2c(=O)c2ccccc21)N/N=C/c1cc([N+](=O)[O-])ccc1N1CCCCCC1,IC50,SUMO-activating enzyme [27],24.9 µM (active)
same,IC50,[28],1.94 µM (active)
same,IC50,SUMO-activating enzyme [29],6.12 µM (active)
